# From patent US20250144067A1, “PERSONALIZED STARVATION THERAPY FOR CANCER” (Faeth Therapeutics, Inc., priority 2021, published 2025)
# Where a name gives a salt, the structure may show the parent alone. Read-outs that look alike come from different tables or passages of the source.
# Tests used:
# [1] = tested on: NCI-H292 lung cancer cells; test: FDA drug screening, complete media vs cholesterol-free media without statin (TABLE 1); format: cell-based, human
# [2] = tested on: NCI-H292 lung cancer cells; test: FDA drug screening, complete media vs cholesterol-free media with simvastatin (TABLE 2); format: cell-based, human
# [3] = NCI-H292 cells, cholesterol-free media without statin, FDA drug library screen
# [4] = NCI-H292 cells, complete media, FDA drug library screen
# [5] = complete vs cholesterol-free media, >0 enhanced anti-cancer activity, about 0 neutral, <0 antagonist
# [6] = NCI-H292 cells, cholesterol-free media with simvastatin 0.04 μM, FDA drug library screen (TABLE 2)
# [7] = NCI-H292 cells, complete media, FDA drug library screen (TABLE 2)
# [8] = complete media minus cholesterol-free media + simvastatin (0.04 μM), >0 enhanced anti-cancer activity, about 0 neutral, <0 antagonist
# [9] = Complete minus Cholesterol-free, >0 enhanced anti-cancer activity, about 0 neutral, <0 antagonist
# [10] = NCI-H292 cells, FDA drug library screen, cholesterol-free media with simvastatin 0.04 μM
# [11] = NCI-H292 cells, FDA drug library screen, complete media
# [12] = complete media minus cholesterol-free media + simvastatin, >0 enhanced anti-cancer activity, about 0 neutral, <0 antagonist
# [13] = NCI-H292 cells, FDA library drug in cholesterol-free media with simvastatin 0.04 μM
# [14] = NCI-H292 cells, FDA library drug in complete media
# [15] = complete media vs cholesterol-free media + simvastatin (0.04 μM), >0 enhanced anti-cancer activity, about 0 neutral, <0 antagonist
# [16] = Complete minus Cholesterol-free, greater than 0 enhanced anti-cancer activity, about 0 neutral, below 0 antagonists
# [17] = NCI-H292 cells in cholesterol-free media without statin
# [18] = NCI-H292 cells in complete media
# [19] = NCI-H292 cells, cholesterol-free media with simvastatin 0.04 μM, cell growth value in FDA drug screen
# [20] = NCI-H292 cells, complete media, cell growth value in FDA drug screen
# [21] = NCI-H292 cells, cholesterol-free media without statin
# [22] = Complete minus Cholesterol-free, greater than 0 enhanced anti-cancer activity, about 0 neutral, below 0 antagonist
# [23] = NCI-H292 cells, FDA drug library screen, cholesterol-free media without statin
smiles,measurement,setting,value
CC(C)(C)OC(=O)N[C@H]1CCCCC/C=C\[C@@H]2C[C@@]2(C(=O)NS(=O)(=O)C2CC2)NC(=O)[C@@H]2C[C@@H](OC(=O)N3Cc4cccc(F)c4C3)CN2C1=O [Danoprevir],Cholesterol-free,[1]; [3],0.802
same,Complete,[1]; [4],1.257
same,Difference,[1]; [5],0.45
same,Cholesterol-free media + simvastatin (0.04 μM),[2]; [6],0.8835
same,Complete Media,[2]; [7],0.8799
same,Difference,[2]; [8],0.00
OCCN1CCN(CCCN2c3ccccc3Sc3ccc(Cl)cc32)CC1 [Perphenazine],Difference,[1]; [9],0.00
same,Cholesterol-free,[1]; [3],0.9098
same,Complete,[1]; [4],0.9103
same,Cholesterol-free media + simvastatin (0.04 μM),[2]; [10],0.707
same,Complete Media,[2]; [11],0.9554
same,Difference,[2]; [12],0.25
CN(C)[C@@H]1C(O)=C(C(N)=O)C(=O)[C@@]2(O)C(O)=C3C(=O)c4c(O)cccc4[C@@](C)(O)[C@H]3[C@H](O)[C@@H]12 [Oxytetracycline],Cholesterol-free,[1]; [3],0.9301
same,Complete,[1]; [4],1.086
same,Difference,[1]; [5],0.16
same,Cholesterol-free media + simvastatin (0.04 μM),[2]; [13],2.284
same,Complete Media,[2]; [14],1.447
same,Difference,[2]; [15],−0.84
CO/N=C(\C(=O)N[C@@H]1C(=O)N2C(C(=O)[O-])=C(C[n+]3ccn4ncccc43)CS[C@H]12)c1nsc(N)n1 [Cefozopran (hydrochloride)],Difference,[1]; [9],−0.04
same,Cholesterol-free,[1]; [3],1.014
same,Complete,[1]; [4],0.9759
same,Cholesterol-free media + simvastatin (0.04 μM),[2]; [13],1.89
same,Complete Media,[2]; [14],1.537
same,Difference,[2]; [15],−0.35
COC(=O)CCc1ccc(OCC(O)CNC(C)C)cc1 (stereo not shown) [Esmolol (hydrochloride)],Cholesterol-free,[1]; [3],0.7243
same,Complete,[1]; [4],0.9329
same,Difference,[1]; [5],0.21
same,Cholesterol-free media + simvastatin (0.04 μM),[2]; [10],1.21
same,Complete Media,[2]; [11],1.054
same,Difference,[2]; [15],−0.16
Cc1ccccc1C(=O)Nc1ccc(C(=O)N2CCCC(N(C)C)c3ccccc32)cc1 (stereo not shown) [Mozavaptan (hydrochloride)],Difference,[1]; [16],−0.56
same,Cholesterol-free,[1]; [17],1.248
same,Complete,[1]; [18],0.6877
same,Cholesterol-free media + simvastatin (0.04 μM),[2]; [19],1.17
same,Complete Media,[2]; [20],1.196
same,Difference,[2]; [12],0.03
CN[C@H](CC(C)C)C(=O)N[C@H]1C(=O)N[C@@H](CC(N)=O)C(=O)N[C@H]2C(=O)N[C@H]3C(=O)N[C@H](C(=O)N[C@H](C(=O)O)c4cc(O)cc(O)c4-c4cc3ccc4O)[C@H](O)c3ccc(c(Cl)c3)Oc3cc2cc(c3O[C@@H]2O[C@H](CO)[C@@H](O)[C@H](O)[C@H]2O[C@H]2C[C@](C)(N)[C@H](O)[C@H](C)O2)Oc2ccc(cc2Cl)[C@H]1O [Vancomycin (hydrochloride)],Cholesterol-free,[1],0.8305
same,Complete,[1],0.7537
same,Difference,[1],−0.08
same,Cholesterol-free media + simvastatin (0.04 μM),[2],0.8152
same,Complete Media,[2],0.7422
same,Difference,[2],−0.07
CSc1ccc2c(c1)N(CCC1CCCCN1C)c1ccccc1S2 (stereo not shown) [Thioridazine (hydrochloride)],Cholesterol-free,[1]; [3],1.045
same,Complete,[1]; [4],1.124
same,Difference,[1]; [5],0.08
same,Cholesterol-free media + simvastatin (0.04 μM),[2]; [10],1.073
same,Complete Media,[2]; [11],0.9459
same,Difference,[2]; [15],−0.13
CCCCOc1cc(C(=O)NCCN(CC)CC)c2ccccc2n1 [Dibucaine (hydrochloride)],Difference,[1]; [16],−0.71
same,Cholesterol-free,[1]; [17],1.433
same,Complete,[1]; [18],0.7196
same,Cholesterol-free media + simvastatin (0.04 μM),[2]; [10],0.7966
same,Complete Media,[2]; [11],1.391
same,Difference,[2]; [12],0.59
CC(C)(C)N.CCC[C@H](N[C@@H](C)C(=O)N1[C@H](C(=O)O)C[C@@H]2CCCC[C@@H]21)C(=O)OCC [Perindopril (erbumine)],Difference,[1]; [9],−0.25
same,Cholesterol-free,[1]; [21],1.151
same,Complete,"[1]; NCI-H292 cells, complete media",0.8989
same,Cholesterol-free media + simvastatin (0.04 μM),[2]; [10],0.9237
same,Complete Media,[2]; [11],0.7917
same,Difference,[2]; [15],−0.13
CNC[C@H](O)c1ccc(O)c(O)c1.O=C(O)C(O)C(O)C(=O)O [L-Epinephrine (Bitartrate)],Difference,[1]; [22],−0.14
same,Cholesterol-free,[1]; [23],1.247
same,Complete,[1]; [11],1.112
same,Cholesterol-free media + simvastatin (0.04 μM),[2]; [19],1.096
same,Complete Media,[2]; [20],1.136
same,Difference,[2]; [12],0.04
Cc1ccc2c(Cl)cc(Cl)c(O)c2n1 [Chlorquinaldol],Difference,[1]; [9],0.01
same,Cholesterol-free,[1]; [3],0.003949
same,Complete,[1]; [4],0.01849
same,Cholesterol-free media + simvastatin (0.04 μM),[2]; [6],0.0008861
same,Complete Media,[2]; [7],0.007501
same,Difference,[2]; [8],0.01
COc1cc2c(Nc3ccc(Br)cc3F)ncnc2cc1OCC1CCN(C)CC1 [Vandetanib],Cholesterol-free,[1]; [3],0.1902
same,Complete,[1]; [4],0.3633
same,Difference,[1]; [5],0.17
same,Cholesterol-free media + simvastatin (0.04 μM),[2]; [10],0.4174
same,Complete Media,[2]; [11],0.7391
same,Difference,[2]; [12],0.32
C[C@]12CC[C@@H]3c4ccc(O)cc4CC[C@H]3[C@@H]1CC[C@@H]2O [Estradiol],Difference,[1]; [9],0.06
same,Cholesterol-free,[1]; [3],0.707
same,Complete,[1]; [4],0.7678
same,Cholesterol-free media + simvastatin (0.04 μM),[2]; [10],1.106
same,Complete Media,[2]; [11],1.409
same,Difference,[2]; [12],0.30
CS(=O)(=O)c1ccc(C2=C(c3ccccc3)C(=O)OC2)cc1 [Rofecoxib],Cholesterol-free,[1]; [3],1.041
same,Difference,[1]; [5],0.11
same,Cholesterol-free media + simvastatin (0.04 μM),[2]; [10],1.252
same,Difference,[2]; [15],−0.11
CC(CCc1ccccc1)NC(C)C(O)c1ccc(O)cc1 (stereo not shown) [Nylidrin (hydrochloride)],Difference,[1]; [16],−0.53
same,Cholesterol-free,[1]; [17],1.455
same,Complete,[1]; [18],0.9273
same,Cholesterol-free media + simvastatin (0.04 μM),[2]; [10],0.6926
same,Complete Media,[2]; [11],0.8576
same,Difference,[2]; [12],0.17
COC(=O)c1ccc2c(c1)NC(=O)/C2=C(\Nc1ccc(N(C)C(=O)CN2CCN(C)CC2)cc1)c1ccccc1 [Nintedanib],Difference,[1]; [22],−0.17
same,Cholesterol-free,[1]; [23],0.7067
same,Complete,[1]; [11],0.5362
same,Cholesterol-free media + simvastatin (0.04 μM),[2]; [6],0.7141
same,Complete Media,[2]; [7],0.7297
same,Difference,[2]; [8],0.02
CN1CCC(=C2c3ccccc3C=Cc3ccccc32)CC1 [Cyproheptadine (hydrochloride sesquihydrate)],Cholesterol-free,[1]; [3],0.8413
same,Complete,[1]; [4],1.399
same,Difference,[1]; [5],0.56
same,Cholesterol-free media + simvastatin (0.04 μM),[2]; [19],1.087
same,Complete Media,[2]; [20],1.192
same,Difference,[2]; [12],0.11
CN(C)CCCC1(c2ccc(F)cc2)OCc2cc(C#N)ccc21 (stereo not shown) [Citalopram (hydrobromide)],Cholesterol-free,[1]; [3],0.8091
same,Complete,[1]; [4],1.106
same,Difference,[1]; [5],0.30
same,Cholesterol-free media + simvastatin (0.04 μM),[2]; [13],1.457
same,Complete Media,[2]; [14],0.8476
same,Difference,[2]; [15],−0.61
CN1CCOC(c2ccccc2)c2ccccc2C1 (stereo not shown) [Nefopam (hydrochloride)],Cholesterol-free,[1]; [21],1.379
same,Complete,"[1]; NCI-H292 cells, complete media",0.9673
same,Difference,"[1]; complete vs cholesterol-free media, greater than 0 enhanced anti-cancer activity, about 0 neutral, below 0 antagonists",−0.41
same,Cholesterol-free media + simvastatin (0.04 μM),[2]; [6],1.077
same,Complete Media,[2]; [7],1.041
same,Difference,[2]; [8],−0.04
CC(C)(CCCCCC(O)CCCCCC(C)(C)C(=O)O)C(=O)O [Bempedoic acid],Difference,[1]; [9],−0.25
same,Cholesterol-free,[1]; [21],1.343
same,Complete,"[1]; NCI-H292 cells, complete media",1.094
same,Cholesterol-free media + simvastatin (0.04 μM),[2]; [10],1.143
same,Complete Media,[2]; [11],1.281
same,Difference,[2]; [12],0.14
